Results from publication PMC11510499, “Mechanism-Based Allylic Carbasugar Chlorides That Form Covalent Intermediates with α- and β-Galactosidases” (Molecules, 2024).
“Also recorded” adds a separate entry of the source.

Key:
Assay type in all cases: biochemical
[1] = target: T1, Human α-galactosidase (GalA) (Homo sapiens, UniProt P06280); experiment: Covalent inhibition (inactivation) kinetics of Human α-galactosidase (GalA); details: for covalent inhibition observed: at 5 mM inhibitor, NIO = No inhibition observed, pH 4.6, 37 °C
T1 construct: purchased Biotechne
T1 sequence (P06280 32-429): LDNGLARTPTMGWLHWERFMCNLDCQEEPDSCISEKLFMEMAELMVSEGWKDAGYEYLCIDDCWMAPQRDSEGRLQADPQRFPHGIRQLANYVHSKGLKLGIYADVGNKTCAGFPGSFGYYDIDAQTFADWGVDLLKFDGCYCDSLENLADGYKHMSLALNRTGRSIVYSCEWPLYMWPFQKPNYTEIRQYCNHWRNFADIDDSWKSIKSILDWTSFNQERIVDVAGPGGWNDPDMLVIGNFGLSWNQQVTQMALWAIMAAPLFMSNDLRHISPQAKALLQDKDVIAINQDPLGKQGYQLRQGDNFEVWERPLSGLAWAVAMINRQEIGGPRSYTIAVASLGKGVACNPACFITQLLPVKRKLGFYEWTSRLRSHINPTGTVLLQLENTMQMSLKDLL
Experimental: (§1) Recombinant Human α-galactosidase (GalA) was purchased from Biotechne, and Aspergillus oryzae β-galactosidase was purchased from Sigma. We calculated the various rate constants for covalent inhibition of these two glycosidases by compounds 1 to 4 by use of either a classical jump dilution assay or a continuous assay protocol.
(§2) First, we incubated the enzyme using at least five different inhibitor concentrations in the appropriate buffer. We then ‘jump-diluted’ the inactivation mixture by adding 4 µL aliquots of the inhibition mixture to a pre-equilibrated 196 µL buffered solution containing substrate (see assay conditions section). We monitored the enzymatic activity using either UV-vis (Cary300, Agilent Technologies, Santa Clara, CA, United States) or fluorescence (Cary Eclipse). All rate constants for inhibition (kobs) were calculated using a standard nonlinear least squares fit of enzyme activity (%) versus time data to a first-order equation. We then used a standard Michaelis–Menten expression to evaluated kinact and kinact/Ki for covalent inhibition using a standard nonlinear least squares fitting routine. However, in cases where we noted insufficient saturation of inhibitor, we used a standard linear fit of the kobs versus covalent inhibitor concentration to obtain the inhibition rate constant kinact/Ki.
(§3) Second, we also used a continuous assay protocol in which we added the enzyme to a pre-equilibrated buffered mixture containing substrate and inhibitor. We monitored the reaction continuously until we noted that the rate of fluorophore (or chromophore) became linear following the initial first-order process. We repeated these experiments for at least five other inhibitor concentrations. We calculated the apparent rate constant (kapp) at every inhibitor concentration by fitting the progress curves to equation 1 (for UV-Vis or a similar equation for fluorescence data), where Vi is the initial velocity at t = 0 and Vf is the velocity at t = ∞ [31]. (1) Abs=νft+νi−νf/kapp1−e^−kappt
(§4) The kapp values versus inhibitor concentrations were then fit to a modified Michaelis–Menten expression for competitive inhibition (equation 2), which gives the second-order inhibition parameter kinact/Ki only. (2) kapp=kreact+kinact/KiI/1+S/Km
(§5) The release of 4-nitrophenol was monitored at 400 nm, while the release of 4-methylumbelliferone was monitored at 365 nm excitation and 445 emission wavelengths. All rate constants were determined by fitting experimental data on the computer program GraphPad Prism 10.0 (GraphPad Software, Boston, MA, USA).

[2] = target: T2, A. oryzae GH35 β-galactosidase (LacA) (Aspergillus oryzae, UniProt Q2UCU3); experiment: Covalent inhibition (inactivation) kinetics of A. oryzae β-galactosidase (LacA); details: for kinact/Ki: 50 mM sodium acetate buffer
T2 construct: purchased Sigma
T2 sequence (Q2UCU3 19-1005): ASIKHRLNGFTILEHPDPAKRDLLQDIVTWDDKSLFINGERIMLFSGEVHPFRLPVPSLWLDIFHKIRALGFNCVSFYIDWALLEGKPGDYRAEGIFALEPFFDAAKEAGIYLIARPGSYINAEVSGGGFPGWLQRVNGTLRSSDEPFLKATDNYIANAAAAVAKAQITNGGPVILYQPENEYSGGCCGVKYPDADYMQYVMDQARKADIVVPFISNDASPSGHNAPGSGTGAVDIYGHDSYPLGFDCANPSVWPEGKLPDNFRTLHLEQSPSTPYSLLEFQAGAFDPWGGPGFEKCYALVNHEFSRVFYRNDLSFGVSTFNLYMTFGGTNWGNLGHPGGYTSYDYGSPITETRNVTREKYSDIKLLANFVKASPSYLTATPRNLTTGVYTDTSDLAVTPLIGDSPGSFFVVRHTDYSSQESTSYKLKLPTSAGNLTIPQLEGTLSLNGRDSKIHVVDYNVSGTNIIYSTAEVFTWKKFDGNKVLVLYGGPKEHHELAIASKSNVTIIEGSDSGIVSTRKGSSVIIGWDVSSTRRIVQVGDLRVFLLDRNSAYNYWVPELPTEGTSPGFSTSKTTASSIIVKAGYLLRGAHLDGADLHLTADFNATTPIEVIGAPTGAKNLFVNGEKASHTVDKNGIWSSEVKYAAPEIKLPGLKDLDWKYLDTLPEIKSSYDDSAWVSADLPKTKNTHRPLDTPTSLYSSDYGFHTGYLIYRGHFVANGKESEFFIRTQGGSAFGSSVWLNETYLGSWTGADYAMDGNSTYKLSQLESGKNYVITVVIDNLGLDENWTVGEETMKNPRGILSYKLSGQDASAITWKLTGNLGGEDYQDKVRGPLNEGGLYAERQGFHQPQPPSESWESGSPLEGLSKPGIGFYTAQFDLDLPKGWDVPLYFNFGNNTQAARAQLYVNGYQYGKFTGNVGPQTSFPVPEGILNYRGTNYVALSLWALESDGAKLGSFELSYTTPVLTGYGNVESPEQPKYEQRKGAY
Experimental: as §1, §2, §3, §4, §5

[3] = target: T2, A. oryzae GH35 β-galactosidase (LacA); experiment: Reactivation kinetics of covalently inhibited A. oryzae β-galactosidase (LacA); details: 50 mM sodium acetate buffer, pH 4.5, 0.1% BSA, 37 °C; for t1/2: half-life of covalent intermediate
Experimental: (§6) In summary, all inhibitors that covalently label either Human α-galactosidase or Aspergillus oryzae β-galactosidase display linear second-order kinetics where the slopes of the graphs give kinact/Ki (Table 1 and Table 2). That is, no saturation binding is noted even up to inhibitor concentrations of 8 mM, i.e., Ki » 8 mM. […] As a result, reactivation kinetics were monitored by diluting a quantity of inhibited enzyme into a buffered solution containing substrate. Shown in Figure 3 are the measured gradients (time intervals of 100 s) from the absorbance versus time plot of the reactivation for GH35 A. oryzae β-galactosidase with 1–3.
(§7) We monitored a concentrated solution of enzyme and inhibitor at 37 °C until the measured enzyme activity dropped to under 5% of that initially measured. We then added a small volume (typically 0.5 µL) to a pre-equilibrated reactivation buffer containing substrate (200 µL). We then continuously monitored the release of either the chromophore or the fluorophore. We then calculated signal versus time gradient slope at uniform time intervals to give reaction rates. We fit these computed values to a standard first-order rate equation (Prism 10.0) to give us the first order reactivation rate constant (kreact).

[4] = target: T1, Human α-galactosidase (GalA); experiment: Reactivation kinetics of covalently inhibited Human α-galactosidase (GalA); details: 50 mM sodium citrate buffer, pH 4.6, 50 mM NaCl, 0.1% BSA, 37 °C; for t1/2: half-life of covalent intermediate
Experimental: as §6, §7

SMILES | covalent inhibition observed [1] | kinact/KI ([2]; pH 4.5, 50 mM sodium acetate buffer, pH 4.5, 0.1% BSA, 37 °C) [M⁻¹ s⁻¹] | kreact [3] | t1/2 [3] [min] | kinact/KI ([1]; pH 4.6, 50 mM sodium citrate buffer, pH 4.6, 50 mM NaCl, 0.1% BSA, 37 °C) [M⁻¹ s⁻¹] | kinact/Ki ([2]; pH 4.5, 0.1% BSA, 37 °C) [M⁻¹ s⁻¹] | kreact [4] | t1/2 [4] [min] | kinact/Ki ([1]; 50 mM sodium citrate buffer, pH 4.6, 50 mM NaCl, 0.1% BSA, 37 °C) [M⁻¹ s⁻¹] | covalent inhibition observed ([2]; at 1 mM inhibitor, NIO = No inhibition observed, pH 4.5, 37 °C)
O[C@@H]1[C@@H](O)[C@@H](O)C=C[C@H]1Cl [Compound 1, 5,5a-didehydro-5a-carba-β-L-arabino-hexopyranosyl chloride] | no measurable covalent inhibition; also recorded: NIO ^a at 5 mM | 17 ± 0.5 | (2.5 ± 0.1) × 10^−3 s^−1 | 4.6 ± 0.2 | – | – | – | – | – | –
OC1C=CC(Cl)C(O)C1O (stereo not drawn) [Compound 2] | – | – | (2.6 ± 0.2) × 10^−3 s^−1 | 4.5 ± 0.3 | 0.25 ± 0.004 | 47 ± 2 | (5.1 ± 0.2) × 10^−4 s^−1 | 22.5 ± 0.7 | – | –
OC1C=CC(Cl)C(O)C1O (stereo not drawn) [Compound 3] | – | – | (2.6 ± 0.2) × 10^−3 s^−1 | 4.5 ± 0.3 | – | 2.7 ± 0.04 | (4.9 ± 0.2) × 10^−4 s^−1 | 23.4 ± 0.9 | 0.18 ± 0.01 | –
O[C@@H]1[C@H](O)[C@@H](O)C=C[C@H]1Cl [Compound 4] | no measurable covalent inhibition; also recorded: NIO ^a at 5 mM | – | – | – | – | – | – | – | – | no activity; also recorded: NIO ^a at 1 mM
